Laboratory results taken from ChEMBL document CHEMBL1131658, “Potent cyclic urea HIV protease inhibitors with 3-aminoindazole P2/P2' groups” (Bioorg Med Chem Lett, 1998).

Assays:
[1] = target: Human immunodeficiency virus type 1 protease (Human immunodeficiency virus 1, UniProt Q72874); test: The compound was evaluated for inhibition of HIV protease
MT2 = test: Compound was evaluated for accumulation of viral RNA transcripts three days after infection of MT-2 cells with HIV-1 RF; assay type: functional; conditions: Homo sapiens, MT2, 72 h
[2] = Ratio of -logKi with respect to inhibition was evaluated; assay type: functional
[3] = Percentage Bioavailability was evaluated.; assay type: ADME, organism-based; conditions: in vivo; read-out: Bioavailabiility
[4] = Maximum concentration of compound in dog was evaluated.; assay type: ADME, organism-based, Canis lupus familiaris; conditions: in vivo
[5] = Maximum concentration of compound in rat was evaluated.; assay type: ADME, organism-based; conditions: in vivo
[6] = Half life period was evaluated.; assay type: ADME

Row | bioavailability [3] [%] | Cmax [4] [nM] | Cmax [5] [nM] | half-life [6] [min] | SMILES | Ki [1] [nM] | IC90 (MT2) [nM] | Ratio [2]
1 | – | – | – | – | CCNc1[nH]nc2ccc(CN3C(=O)N(Cc4ccc5n[nH]c(NCC)c5c4)[C@H](Cc4ccccc4)[C@H](O)[C@@H](O)[C@H]3Cc3ccccc3)cc12 | 0.041 | 65 | 3.2
2 | – | – | – | – | CC(C)Nc1[nH]nc2ccc(CN3C(=O)N(Cc4ccc5n[nH]c(NC(C)C)c5c4)[C@H](Cc4ccccc4)[C@H](O)[C@@H](O)[C@H]3Cc3ccccc3)cc12 | 0.09 | 24 | 2.4
3 | – | – | – | – | O=C1N(Cc2ccc3[nH]c(O)nc3c2)[C@H](Cc2ccccc2)[C@H](O)[C@@H](O)[C@@H](Cc2ccccc2)N1Cc1ccc2[nH]c(O)nc2c1 | < 0.01 | > 65000 | –
4 | – | – | – | – | Nc1[nH]nc2ccc(CN3C(=O)N(Cc4ccc5n[nH]c(N)c5c4)[C@H](Cc4ccccc4)[C@H](O)[C@@H](O)[C@H]3Cc3ccccc3)cc12 | – | 2760 | 5.4
5 | – | – | – | – | O=C1N(Cc2ccc3[nH]nc(N4CCCC4)c3c2)[C@H](Cc2ccccc2)[C@H](O)[C@@H](O)[C@@H](Cc2ccccc2)N1Cc1ccc2[nH]nc(N3CCCC3)c2c1 | 1.3 | 120 | 2
6 | – | – | – | – | CCCNc1[nH]nc2ccc(CN3C(=O)N(Cc4ccc5n[nH]c(NCCC)c5c4)[C@H](Cc4ccccc4)[C@H](O)[C@@H](O)[C@H]3Cc3ccccc3)cc12 | 0.23 | 40 | 2.2
7 | – | – | – | – | O=C1N(Cc2ccc3[nH]nc(NCC4CC4)c3c2)[C@H](Cc2ccccc2)[C@H](O)[C@@H](O)[C@@H](Cc2ccccc2)N1Cc1ccc2[nH]nc(NCC3CC3)c2c1 | 0.34 | 38 | 2.1
8 | – | – | – | – | CNc1[nH]nc2ccc(CN3C(=O)N(Cc4ccc5n[nH]c(NC)c5c4)[C@H](Cc4ccccc4)[C@H](O)[C@@H](O)[C@H]3Cc3ccccc3)cc12 | 0.018 | 279 | 4.2
9 | 13 | 1000 | 30 | 120 | O=C1N(Cc2ccc3[nH]ncc3c2)[C@H](Cc2ccccc2)[C@H](O)[C@@H](O)[C@@H](Cc2ccccc2)N1Cc1ccc2[nH]ncc2c1 | – | 8 | –
10 | – | – | – | – | Nc1n[nH]c2ccc(CN3C(=O)N(Cc4ccc5[nH]nc(N)c5c4)[C@H](Cc4ccccc4)[C@H](O)[C@@H](O)[C@H]3Cc3ccccc3)cc12 | < 0.01 | – | –
